Source: ChEMBL document CHEMBL4033754, “Antiobesity Effect of a Short-Length Peptide YY Analogue after Continuous Administration in Mice” (ACS Med Chem Lett, 2017)
Where a SMILES comes first, the peptide text is derived from it. [ ]: non-standard residue; d: D form. The star is where a group is joined. ξ: configuration not given here. Cha = N[C@@H](CC1CCCCC1)C(=O)O; ξCha = NC(CC1CCCCC1)C(=O)O; Isobutyryl = CC(C)C(=O)*; Aib = CC(C)(N)C(=O)O; Bz = O=C(c1ccccc1)*; ξAbu = CCC(N)C(=O)O; Sar = CNCC(=O)O

Assays:
[1] = target: T1, Neuropeptide Y receptor type 2 (Homo sapiens, UniProt P49146); assay: Agonist activity at human Y2R expressed in CHO cell membranes assessed as [35S]GTPgammaS binding after 120 mins by liquid scintillation method; assay type: functional
T1 sequence (P49146 whole entry): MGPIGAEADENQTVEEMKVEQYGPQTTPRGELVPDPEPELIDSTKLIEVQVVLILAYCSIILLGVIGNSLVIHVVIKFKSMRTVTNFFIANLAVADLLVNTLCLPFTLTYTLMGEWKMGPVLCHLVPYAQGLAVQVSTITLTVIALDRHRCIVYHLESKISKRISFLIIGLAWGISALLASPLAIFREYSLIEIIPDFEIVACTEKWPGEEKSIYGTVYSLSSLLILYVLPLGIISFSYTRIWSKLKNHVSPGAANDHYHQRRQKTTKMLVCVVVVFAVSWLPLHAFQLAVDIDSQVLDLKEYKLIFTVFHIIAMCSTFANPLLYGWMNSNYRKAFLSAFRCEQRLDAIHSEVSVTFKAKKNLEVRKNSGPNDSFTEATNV

[2] = target: T1, Neuropeptide Y receptor type 2; assay: Displacement of [125I]-PYY from human Y2R expressed in CHO cell membranes after 60 mins by liquid scintillation method
Mus musculus = assay: Antiobesity activity in lean C57BL/6J mouse assessed as inhibition of food intake at 1 mg/kg administered via subcutaneous osmotic pumps for 3 continuous days relative to control; details: sc

CCC(NC(=O)[C@H](CCCNC(=N)N)NC(=O)C(C)C)C(=O)NC(CC1CCCCC1)C(=O)NC(CC1CCCCC1)C(=O)N[C@@H](CC(N)=O)C(=O)N[C@@H](CC(C)C)C(=O)NC(C)(C)C(=O)N[C@H](C(=O)N[C@@H](CCCNC(=N)N)C(=O)N[C@@H](CCC(N)=O)C(=O)N[C@@H](CCCNC(=N)N)C(=O)NC(CC1CCCCC1)C(N)=O)[C@@H](C)O (stereo partly specified) (Isobutyryl-R[ξAbu][ξCha][ξCha]NL[Aib]TRQR[ξCha]-NH2)
EC50 [1]: 4.2 nM
IC50 [2]: 7.3 nM

CCC(NC(=O)[C@H](CCCNC(=N)N)NC(=O)[C@H](CC(C)C)NC(C)=O)C(=O)NC(CC1CCCCC1)C(=O)NC(CC1CCCCC1)C(=O)N[C@@H](CC(N)=O)C(=O)N[C@@H](CC(C)C)C(=O)NC(C)(C)C(=O)N[C@H](C(=O)N[C@@H](CCCNC(=N)N)C(=O)N[C@@H](CCC(N)=O)C(=O)N[C@@H](CCCNC(=N)N)C(=O)NC(CC1CCCCC1)C(N)=O)[C@@H](C)O (stereo partly specified) (Ac-LR[ξAbu][ξCha][ξCha]NL[Aib]TRQR[ξCha]-NH2)
EC50 [1]: 6.4 nM
IC50 [2]: 17 nM

CCC(NC(=O)[C@H](CCCNC(=N)N)NC(=O)c1ccccc1)C(=O)NC(CC1CCCCC1)C(=O)NC(CC1CCCCC1)C(=O)N[C@@H](CC(N)=O)C(=O)N[C@@H](CC(C)C)C(=O)NC(C)(C)C(=O)N[C@H](C(=O)N[C@@H](CCCNC(=N)N)C(=O)N[C@@H](CCC(N)=O)C(=O)N[C@@H](CCCNC(=N)N)C(=O)NC(CC1CCCCC1)C(N)=O)[C@@H](C)O (stereo partly specified) (Bz-R[ξAbu][ξCha][ξCha]NL[Aib]TRQR[ξCha]-NH2)
EC50 [1]: 4.6 nM
IC50 [2]: 5.7 nM

CCC(NC(=O)[C@H](CCCNC(=N)N)NC(=O)[C@H](CC(C)C)NC(=O)[C@@H](CO)NC(C)=O)C(=O)NC(CC1CCCCC1)C(=O)NC(CC1CCCCC1)C(=O)N[C@@H](CC(N)=O)C(=O)N[C@@H](CC(C)C)C(=O)NC(C)(C)C(=O)N[C@H](C(=O)N[C@@H](CCCNC(=N)N)C(=O)N[C@@H](CCC(N)=O)C(=O)N[C@@H](CCCNC(=N)N)C(=O)NC(CC1CCCCC1)C(N)=O)[C@@H](C)O (stereo partly specified)
EC50 [1]: 5.5 nM
IC50 [2]: 12 nM

CC(=O)N[C@@H](CO)C(=O)NCC(=O)N[C@@H](CCCNC(=N)N)C(=O)N[C@@H](Cc1cnc[nH]1)C(=O)NC(CC1CCCCC1)C(=O)NC(CC1CCCCC1)C(=O)N[C@@H](CC(N)=O)C(=O)N[C@@H](CC(C)C)C(=O)NC(C)(C)C(=O)N[C@H](C(=O)N[C@@H](CCCNC(=N)N)C(=O)N[C@@H](CCC(N)=O)C(=O)N[C@@H](CCCNC(=N)N)C(=O)NC(CC1CCCCC1)C(N)=O)[C@@H](C)O (stereo partly specified) (Ac-SGRH[ξCha][ξCha]NL[Aib]TRQR[ξCha]-NH2)
EC50 [1]: 1.3 nM
IC50 [2]: 4.8 nM

CC(=O)N[C@@H](CO)C(=O)NC(C)(C)C(=O)N[C@@H](CCCNC(=N)N)C(=O)N[C@@H](Cc1cnc[nH]1)C(=O)NC(CC1CCCCC1)C(=O)NC(CC1CCCCC1)C(=O)N[C@@H](CC(N)=O)C(=O)N[C@@H](CC(C)C)C(=O)NC(C)(C)C(=O)N[C@H](C(=O)N[C@@H](CCCNC(=N)N)C(=O)N[C@@H](CCC(N)=O)C(=O)N[C@@H](CCCNC(=N)N)C(=O)NC(CC1CCCCC1)C(N)=O)[C@@H](C)O (stereo partly specified) (Ac-S[Aib]RH[ξCha][ξCha]NL[Aib]TRQR[ξCha]-NH2)
EC50 [1]: 0.55 nM
inhibition in vivo at 1 mg/kg (Mus musculus): 51%
IC50 [2]: 2 nM

CCC(NC(=O)[C@H](CCCNC(=N)N)NC(=O)[C@@H](CC(C)C)NC(=O)[C@H](CO)NC(C)=O)C(=O)NC(CC1CCCCC1)C(=O)NC(CC1CCCCC1)C(=O)N[C@@H](CC(N)=O)C(=O)N[C@@H](CC(C)C)C(=O)NC(C)(C)C(=O)N[C@H](C(=O)N[C@@H](CCCNC(=N)N)C(=O)N[C@@H](CCC(N)=O)C(=O)N[C@@H](CCCNC(=N)N)C(=O)NC(CC1CCCCC1)C(N)=O)[C@@H](C)O (stereo partly specified)
EC50 [1]: 1.3 nM
IC50 [2]: 11 nM

CC(=O)N[C@@H](CO)C(=O)N(C)[C@@H](C)C(=O)N[C@@H](CCCNC(=N)N)C(=O)N[C@@H](Cc1cnc[nH]1)C(=O)NC(CC1CCCCC1)C(=O)NC(CC1CCCCC1)C(=O)N[C@@H](CC(N)=O)C(=O)N[C@@H](CC(C)C)C(=O)NC(C)(C)C(=O)N[C@H](C(=O)N[C@@H](CCCNC(=N)N)C(=O)N[C@@H](CCC(N)=O)C(=O)N[C@@H](CCCNC(=N)N)C(=O)NC(CC1CCCCC1)C(N)=O)[C@@H](C)O (stereo partly specified)
EC50 [1]: 1.2 nM
IC50 [2]: 5.4 nM

CC(=O)N[C@@H](CO)C(=O)N(C)[C@H](C)C(=O)N[C@@H](CCCNC(=N)N)C(=O)N[C@@H](Cc1cnc[nH]1)C(=O)NC(CC1CCCCC1)C(=O)NC(CC1CCCCC1)C(=O)N[C@@H](CC(N)=O)C(=O)N[C@@H](CC(C)C)C(=O)NC(C)(C)C(=O)N[C@H](C(=O)N[C@@H](CCCNC(=N)N)C(=O)N[C@@H](CCC(N)=O)C(=O)N[C@@H](CCCNC(=N)N)C(=O)NC(CC1CCCCC1)C(N)=O)[C@@H](C)O (stereo partly specified)
EC50 [1]: 0.59 nM
inhibition in vivo at 1 mg/kg (Mus musculus): 28%
IC50 [2]: 2.8 nM

CCC(NC(=O)[C@H](CCCNC(=N)N)NC(=O)[C@@H](CC(C)C)NC(=O)[C@@H](CO)NC(C)=O)C(=O)NC(CC1CCCCC1)C(=O)NC(CC1CCCCC1)C(=O)N[C@@H](CC(N)=O)C(=O)N[C@@H](CC(C)C)C(=O)NC(C)(C)C(=O)N[C@H](C(=O)N[C@@H](CCCNC(=N)N)C(=O)N[C@@H](CCC(N)=O)C(=O)N[C@@H](CCCNC(=N)N)C(=O)NC(CC1CCCCC1)C(N)=O)[C@@H](C)O (stereo partly specified)
EC50 [1]: 3.8 nM
IC50 [2]: 23 nM

CC(=O)N[C@@H](CO)C(=O)N1CCC[C@@H]1C(=O)N[C@@H](CCCNC(=N)N)C(=O)N[C@@H](Cc1cnc[nH]1)C(=O)NC(CC1CCCCC1)C(=O)NC(CC1CCCCC1)C(=O)N[C@@H](CC(N)=O)C(=O)N[C@@H](CC(C)C)C(=O)NC(C)(C)C(=O)N[C@H](C(=O)N[C@@H](CCCNC(=N)N)C(=O)N[C@@H](CCC(N)=O)C(=O)N[C@@H](CCCNC(=N)N)C(=O)NC(CC1CCCCC1)C(N)=O)[C@@H](C)O (stereo partly specified)
EC50 [1]: 0.61 nM
inhibition in vivo at 1 mg/kg (Mus musculus): 33%
IC50 [2]: 1.5 nM

CC(C)C[C@H](NC(=O)[C@H](CO)NC(=O)[C@H](C)N)C(=O)N[C@@H](CCCNC(=N)N)C(=O)N[C@@H](Cc1cnc[nH]1)C(=O)N[C@@H](CC1CCCCC1)C(=O)N[C@@H](CC1CCCCC1)C(=O)N[C@@H](CC(N)=O)C(=O)N[C@@H](CC(C)C)C(=O)NC(C)(C)C(=O)N[C@H](C(=O)N[C@@H](CCCNC(=N)N)C(=O)N[C@@H](CCC(N)=O)C(=O)N[C@@H](CCCNC(=N)N)C(=O)N[C@@H](CC1CCCCC1)C(N)=O)[C@@H](C)O (H-ASLRH[Cha][Cha]NL[Aib]TRQR[Cha]-NH2)
EC50 [1]: 0.74 nM
IC50 [2]: 1.7 nM

CCC(NC(=O)[C@H](CCCNC(=N)N)NC(=O)[C@H](CC(C)C)NC(=O)[C@H](CO)NC(=O)[C@H](C)N)C(=O)NC(CC1CCCCC1)C(=O)NC(CC1CCCCC1)C(=O)N[C@@H](CC(N)=O)C(=O)N[C@@H](CC(C)C)C(=O)NC(C)(C)C(=O)N[C@H](C(=O)N[C@@H](CCCNC(=N)N)C(=O)N[C@@H](CCC(N)=O)C(=O)N[C@@H](CCCNC(=N)N)C(=O)NC(CC1CCCCC1)C(N)=O)[C@@H](C)O (stereo partly specified) (H-ASLR[ξAbu][ξCha][ξCha]NL[Aib]TRQR[ξCha]-NH2)
EC50 [1]: 2.5 nM
IC50 [2]: 2.7 nM

CC(=O)N[C@@H](CO)C(=O)N(C)CC(=O)N[C@@H](CCCNC(=N)N)C(=O)N[C@@H](Cc1cnc[nH]1)C(=O)NC(CC1CCCCC1)C(=O)NC(CC1CCCCC1)C(=O)N[C@@H](CC(N)=O)C(=O)N[C@@H](CC(C)C)C(=O)NC(C)(C)C(=O)N[C@H](C(=O)N[C@@H](CCCNC(=N)N)C(=O)N[C@@H](CCC(N)=O)C(=O)N[C@@H](CCCNC(=N)N)C(=O)NC(CC1CCCCC1)C(N)=O)[C@@H](C)O (stereo partly specified) (Ac-S[Sar]RH[ξCha][ξCha]NL[Aib]TRQR[ξCha]-NH2)
EC50 [1]: 1 nM
inhibition in vivo at 1 mg/kg (Mus musculus): 13%
IC50 [2]: 2.8 nM

CCC(NC(=O)[C@H](CCCNC(=N)N)NC(=O)[C@H](CC(C)C)NC(=O)[C@H](CO)NC(=O)[C@H](C)NC(C)=O)C(=O)NC(CC1CCCCC1)C(=O)NC(CC1CCCCC1)C(=O)N[C@@H](CC(N)=O)C(=O)N[C@@H](CC(C)C)C(=O)NC(C)(C)C(=O)N[C@H](C(=O)N[C@@H](CCCNC(=N)N)C(=O)N[C@@H](CCC(N)=O)C(=O)N[C@@H](CCCNC(=N)N)C(=O)NC(CC1CCCCC1)C(N)=O)[C@@H](C)O (stereo partly specified) (Ac-ASLR[ξAbu][ξCha][ξCha]NL[Aib]TRQR[ξCha]-NH2)
EC50 [1]: 4.6 nM
IC50 [2]: 6.8 nM

CCC(NC(=O)[C@H](CCCNC(=N)N)NC(=O)[C@H](CC(C)C)NC(=O)[C@H](CO)NC(C)=O)C(=O)NC(CC1CCCCC1)C(=O)NC(CC1CCCCC1)C(=O)N[C@@H](CC(N)=O)C(=O)N[C@@H](CC(C)C)C(=O)NC(C)(C)C(=O)N[C@H](C(=O)N[C@@H](CCCNC(=N)N)C(=O)N[C@@H](CCC(N)=O)C(=O)N[C@@H](CCCNC(=N)N)C(=O)NC(CC1CCCCC1)C(N)=O)[C@@H](C)O (stereo partly specified)
EC50 [1]: 3 nM
IC50 [2]: 8.8 nM
